Laboratory results as given in patent publication US4450115A, “Amino-alcohol derivatives” (Kyowa Hakko Kogyo Co., Ltd., priority 1979, dated 1984).
Counter-ions that a name gives are not always drawn. Like-named read-outs stand apart in the source and are kept apart here.

Experiments:
[1] = tested on: α-adrenergic receptor; assay: α blocking activity (inhibition of Norepinephrine-induced increase in systolic blood pressure); assay type: in vivo, mongrel dogs; conditions: Table 6, dogs, 3 μg/kg Norepinephrine i.v.
Description: (§1) In experiments (a), (b), (c) and (d), 3-4 male or female mongrel dogs (weight: 10-20 Kg) as one group were anesthetized by intravenous administration of 30 mg/kg of pentobarbital-Na. All compounds were dissolved in polyethylene glycol 400 and administered to the femoral vein.
(c-1) α blocking activity
In this test, 3 μg/kg of Norepinephrine is intravenously administered to the dogs to cause an increase in systolic blood pressure.

[2] = tested on: β1-adrenergic receptor; assay: β1 blocking activity (inhibition of Isoproterenol-induced increase in heart rate); assay type: in vivo, mongrel dogs; conditions: Table 6, dogs, 0.5 μg/kg Isoproterenol i.v.
Description: as §1
(c-2) β1 blocking activity
In this test, 0.5 μg/kg of Isoproterenol is intravenously administered to the dogs to cause an increase in the heart rate.

[3] = tested on: β2-adrenergic receptor; assay: β2 blocking activity (inhibition of Isoproterenol-induced decrease in diastolic blood pressure); assay type: in vivo, mongrel dogs; conditions: Table 6, dogs, 0.5 μg/kg Isoproterenol i.v.
Description: as §1
(c-3) β2 blocking activity
In this test, 0.5 μg/kg of Isoproterenol is intravenously administered to the dogs to cause a decrease in diastolic blood pressure.

[4] = in vivo; conditions: mouse, male dd-strain mice
Text: The test compounds were orally administered to male dd-strain mice weighing 20-25 g.

[5] = tested on: main artery of the dogs' organ; assay: Effect on organ blood flow; assay type: in vivo, mongrel dogs; conditions: Canis lupus familiaris, iv, Table 5, femoral vein;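 also: percent change relative to blood flow before compound administration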
Description: as §1
(b) Effect on organ blood flow M (%)
In this test, 1 mg/kg of each compound shown in Tables 5 and 7 is administered to the dogs and an electromagnetic probe is attached to the main artery of the dogs' organ to measure the flow of blood.

[6] = read-out: Organ blood flow, Crotch (percentage change)
[7] = read-out: Organ blood flow, Malleus (percentage change)

CC(CCc1ccccc1)NCC(O)COc1ccc(CC(=O)O)cc1 (stereo not shown) [Compound 17, 1-(4-carboxymethylphenoxy)-3-(1-methyl-3-phenylpropylamino)-2-propanol]
α blocking activity, percentage inhibition ([1]; test compound 0.1 mg/kg): +15% | β1 blocking activity, percentage inhibition ([2]; test compound 0.1 mg/kg): +13% | β2 blocking activity, percentage inhibition ([3]; test compound 0.1 mg/kg): -13% | LD50 ([4]; Table 6, oral): > 1000 mg/kg

Cc1cccc(OCC(O)CNCC2COc3ccccc3O2)c1C (stereo not shown) [Compound 6, 1-(2,3-dimethylphenoxy)-3-(1,4-benzodioxane-2-methaneamino)-2-propanol]
change in vivo at 1 mg/kg [5, 6]: 17% | change in vivo at 1 mg/kg [5, 7]: -9% | LD50 ([4]; Table 5, oral): > 1000 mg/kg

Cc1cccc(OCC(O)CNCC2COc3ccccc3O2)c1 (stereo not shown) [Compound 1, 1-(3-methylphenoxy)-3-(1,4-benzodioxane-2-methaneamino)-2-propanol]
change in vivo at 1 mg/kg [5, 6]: 35% | change in vivo at 1 mg/kg [5, 7]: 67% | LD50 ([4]; Table 5, oral): 1000 to 2000 mg/kg

CCOC(=O)Cc1ccc(OCC(O)CNCC2COc3ccccc3O2)cc1 (stereo not shown) [Compound 5, 1-(4-ethoxycarbonylmethyl)phenoxy-3-(1,4-benzodioxane-2-methaneamino)-2-propanol]
change in vivo at 1 mg/kg [5, 6]: -26% | change in vivo at 1 mg/kg [5, 7]: -84% | LD50 ([4]; Table 5, oral): > 1000 mg/kg

COC(=O)c1cc(C(O)CNCC2COc3ccccc3O2)ccc1O (stereo not shown) [Compound 10, 1-(3-methoxycarbonyl-4-hydroxy)phenyl-2-(1,4-benzodioxane-2-methaneamino)ethanol]
change in vivo at 1 mg/kg [5, 6]: -50% | change in vivo at 1 mg/kg [5, 7]: -16%

N#Cc1ccccc1OCC(O)CNCC1COc2ccccc2O1 (stereo not shown) [Compound 3, 1-(2-cyanophenoxy)-3-(1,4-benzodioxane-2-methaneamino)-2-propanol]
change in vivo at 1 mg/kg [5, 6]: -21% | change in vivo at 1 mg/kg [5, 7]: 18% | LD50 ([4]; Table 5, oral): 420 mg/kg

COc1ccc(C(O)C(C)NCC2COc3ccccc3O2)cc1C (stereo not shown) [Compound 8, 1-(3-methyl-4-methoxy)phenyl-2-(1,4-benzodioxane-2-methaneamino)propanol]
change in vivo at 1 mg/kg [5, 6]: -67% | change in vivo at 1 mg/kg [5, 7]: -4% | LD50 ([4]; Table 5, oral): 450 mg/kg

CCOC(=O)Cc1ccc(OCC(O)CNC(C)CCc2ccccc2)cc1 (stereo not shown) [Compound 14, 1-(4-ethoxycarbonylmethylphenoxy)-3-(1-methyl-3-phenylpropylamino)-2-propanol]
α blocking activity, percentage inhibition ([1]; test compound 0.1 mg/kg): +13% | β1 blocking activity, percentage inhibition ([2]; test compound 0.1 mg/kg): -11% | β2 blocking activity, percentage inhibition ([3]; test compound 0.1 mg/kg): +2% | LD50 ([4]; Table 6, oral): > 1000 mg/kg

CCOC(=O)Cc1ccc(C(O)CNC(C)CCc2ccccc2)cc1 (stereo not shown) [Compound 21, 1-(4-ethoxycarbonylmethylphenyl)-2-(1-methyl-3-phenylpropylamino) ethanol]
α blocking activity, percentage inhibition ([1]; test compound 0.1 mg/kg): +9% | β1 blocking activity, percentage inhibition ([2]; test compound 0.1 mg/kg): -10% | β2 blocking activity, percentage inhibition ([3]; test compound 0.1 mg/kg): -8% | LD50 ([4]; Table 6, oral): > 1000 mg/kg

COC(=O)c1ccccc1OCC(O)CNC(C)CCc1ccccc1 (stereo not shown) [Compound 15, 1-(2-methoxycarbonylphenoxy)-3-(1-methyl-3-phenylpropylamino)-2-propanol]
α blocking activity, percentage inhibition ([1]; test compound 0.1 mg/kg): -2% | β1 blocking activity, percentage inhibition ([2]; test compound 0.1 mg/kg): -30% | β2 blocking activity, percentage inhibition ([3]; test compound 0.1 mg/kg): -40% | LD50 ([4]; Table 6, oral): 500 to 1000 mg/kg

CC(CCc1ccccc1)NCC(O)c1ccc(CC(N)=O)cc1 (stereo not shown) [Compound 22, 1-(4-carbamoylmethylphenyl)-2-(1-methyl-3-phenylpropylamino) ethanol]
α blocking activity, percentage inhibition ([1]; test compound 0.1 mg/kg): +19% | β1 blocking activity, percentage inhibition ([2]; test compound 0.1 mg/kg): -8% | β2 blocking activity, percentage inhibition ([3]; test compound 0.1 mg/kg): -11% | LD50 ([4]; Table 6, oral): > 1000 mg/kg

Cc1cccc(OCC(O)CNC(C)CCc2ccccc2)c1C (stereo not shown) [Compound 13, 1-(2,3-dimethylphenoxy)-3-(1-methyl-3-phenylpropylamino)-2-propanol]
α blocking activity, percentage inhibition ([1]; test compound 0.1 mg/kg): -20% | β1 blocking activity, percentage inhibition ([2]; test compound 0.1 mg/kg): -73% | β2 blocking activity, percentage inhibition ([3]; test compound 0.1 mg/kg): -34% | LD50 ([4]; Table 6, oral): 500 to 1000 mg/kg

CCOC(=O)Cc1ccc(OCC(O)CNC(C)COc2ccc(OC)cc2)cc1 (stereo not shown) [Compound 32, 1-(4-ethoxycarbonylmethylphenoxy)-3-{1-methyl-2-(4-methoxyphenoxy)ethylamino}-2-propanol]
α blocking activity, percentage inhibition ([1]; test compound 0.1 mg/kg): 0% | β1 blocking activity, percentage inhibition ([2]; test compound 0.1 mg/kg): -11% | β2 blocking activity, percentage inhibition ([3]; test compound 0.1 mg/kg): -2% | LD50 ([4]; Table 6, oral): > 1000 mg/kg

CCOC(=O)Cc1cccc(OCC(O)CNC(C)CCc2ccccc2)c1 (stereo not shown) [Compound 19, 1-(3-ethoxycarbonylmethylphenoxy)-3-(1-methyl-3-phenylpropylamino)-2-propanol]
α blocking activity, percentage inhibition ([1]; test compound 0.1 mg/kg): +23% | β1 blocking activity, percentage inhibition ([2]; test compound 0.1 mg/kg): -7% | β2 blocking activity, percentage inhibition ([3]; test compound 0.1 mg/kg): +14% | LD50 ([4]; Table 6, oral): > 1000 mg/kg

Cc1c(C(O)CNCC2COc3ccccc3O2)oc2ccc(F)cc12 (stereo not shown) [Compound 9, 1-(5-fluoro-3-methyl-2-benzofuranyl)-2-(1,4-benzodioxane-2-methaneamino)ethanol]
change in vivo at 1 mg/kg [5, 6]: 42% | change in vivo at 1 mg/kg [5, 7]: 35%

NC(=O)Cc1ccc(OCC(O)CNCc2ccc3c(c2)OCCO3)cc1 (stereo not shown) [Compound 25, 1-(4-carbamoylmethylphenoxy)-3-(1,4-benzodioxane-6-methaneamino)-2-propano]
change in vivo at 1 mg/kg [5, 6]: 90% | change in vivo at 1 mg/kg [5, 7]: 22% | LD50 ([4]; Table 5, oral): > 1000 mg/kg

COc1ccc(OCC(C)NCC(O)COc2ccccc2C#N)cc1 (stereo not shown) [Compound 31]
α blocking activity, percentage inhibition ([1]; test compound 0.1 mg/kg): -20% | β1 blocking activity, percentage inhibition ([2]; test compound 0.1 mg/kg): -54% | β2 blocking activity, percentage inhibition ([3]; test compound 0.1 mg/kg): -30% | LD50 ([4]; Table 6, oral): 125 to 250 mg/kg

CC(=O)Nc1ccc(OCC(O)CNCC2COc3ccccc3O2)cc1 (stereo not shown) [Compound 2, 1-(4-acetamidophenoxy)-3-(1,4-benzodioxane-2-methaneamino)-2-propanol]
change in vivo at 1 mg/kg [5, 6]: 20% | change in vivo at 1 mg/kg [5, 7]: 50% | LD50 ([4]; Table 5, oral): 500 to 1000 mg/kg

CC(CCc1ccccc1)NCC(O)COc1ccc(CC(N)=O)cc1 (stereo not shown) [Compound 11, 1-(4-carbamoylmethylphenoxy)-3-(1-methyl-3-phenylpropylamino)-2-propanol]
α blocking activity, percentage inhibition ([1]; *dose of compound 1 mg/kg): -78% | β1 blocking activity, percentage inhibition ([2]; *dose of compound 1 mg/kg): -86% | β2 blocking activity, percentage inhibition ([3]; *dose of compound 1 mg/kg): -22% | LD50 ([4]; Table 6, oral): > 1000 mg/kg

O=C1CCCc2c(OCC(O)CNCc3ccc4c(c3)OCCO4)cccc21 (stereo not shown) [Compound 24, 1-{3,4-dihydro-1(2H)-naphthalenon-5-yl}oxy-3-(1,4-benzodioxane-6-methaneamino)-2-propanol]
change in vivo at 1 mg/kg [5, 6]: 106% | change in vivo at 1 mg/kg [5, 7]: 60% | LD50 ([4]; Table 5, oral): > 1000 mg/kg

CC(CCc1ccccc1)NCC(O)c1ccc(O)c(C(N)=O)c1 (stereo not shown) [Reference compound, 5-[1-hydroxy-2-(1-methyl-3-phenylpropyl)aminoethyl] salicylamide hydrochloride, reference compound]
α blocking activity, percentage inhibition ([1]; test compound 0.1 mg/kg): -32% | β1 blocking activity, percentage inhibition ([2]; test compound 0.1 mg/kg): -69% | β2 blocking activity, percentage inhibition ([3]; test compound 0.1 mg/kg): -50%

CC(CCc1ccccc1)NCC(O)COc1ccc(CC(=O)NN)cc1 (stereo not shown) [Compound 18, 1-(4-hydrazinocarbonylmethylphenoxy)-3-(1-methyl-3-phenylpropylamino)-2-propanol]
α blocking activity, percentage inhibition ([1]; test compound 0.1 mg/kg): +10% | β1 blocking activity, percentage inhibition ([2]; test compound 0.1 mg/kg): -3% | β2 blocking activity, percentage inhibition ([3]; test compound 0.1 mg/kg): +2% | LD50 ([4]; Table 6, oral): > 1000 mg/kg

CC(CCc1ccccc1)NCC(O)COc1ccccc1C(N)=O (stereo not shown) [Compound 16, 1-(2-carbamoylphenoxy)-3-(1-methyl-3-phenylpropylamino)-2-propanol]
α blocking activity, percentage inhibition ([1]; test compound 0.1 mg/kg): -28% | β1 blocking activity, percentage inhibition ([2]; test compound 0.1 mg/kg): -57% | β2 blocking activity, percentage inhibition ([3]; test compound 0.1 mg/kg): -19% | LD50 ([4]; Table 6, oral): 250 to 500 mg/kg

CC(CCc1ccccc1)NCC(O)COc1cccc(CC(N)=O)c1 (stereo not shown) [Compound 20, 1-(3-carbamoylmethylphenoxy)-3-(1-methyl-3-phenylpropylamino)-2-propanol]
α blocking activity, percentage inhibition ([1]; test compound 0.1 mg/kg): +7% | β1 blocking activity, percentage inhibition ([2]; test compound 0.1 mg/kg): -9% | β2 blocking activity, percentage inhibition ([3]; test compound 0.1 mg/kg): +9% | LD50 ([4]; Table 6, oral): > 1000 mg/kg

COc1ccc(OCC(C)NCC(O)COc2ccc(NC(C)=O)cc2)cc1 (stereo not shown) [Compound 33, 1-(4-acetamidophenoxy)-3-{1-methyl-2-(4-methoxyphenoxy)ethylamino}-2-propanol]
α blocking activity, percentage inhibition ([1]; test compound 0.1 mg/kg): -21% | β1 blocking activity, percentage inhibition ([2]; test compound 0.1 mg/kg): -52% | β2 blocking activity, percentage inhibition ([3]; test compound 0.1 mg/kg): -13% | LD50 ([4]; Table 6, oral): > 1000 mg/kg

OC(CNCC1COc2ccccc2O1)COc1cccc2ccccc12 (stereo not shown) [Compound 7, 1-(1-naphthyloxy)-3-(1,4-benzodioxane-2-methaneamino)-2-propanol]
change in vivo at 1 mg/kg [5, 6]: -36% | change in vivo at 1 mg/kg [5, 7]: 59% | LD50 ([4]; Table 5, oral): > 1000 mg/kg

COc1ccc(OCC(C)NCC(O)COc2ccc(CC(N)=O)cc2)cc1 (stereo not shown) [Compound 34, 1-(4-carbamoylmethylphenoxy)-3-{1-methyl-2-(4-methoxyphenoxy)ethylamino}-2-propanol]
α blocking activity, percentage inhibition ([1]; test compound 0.1 mg/kg): -36% | β1 blocking activity, percentage inhibition ([2]; test compound 0.1 mg/kg): -55% | β2 blocking activity, percentage inhibition ([3]; test compound 0.1 mg/kg): -57% | LD50 ([4]; Table 6, oral): > 1000 mg/kg

CC(=O)Nc1ccc(OCC(O)CNCc2ccc3c(c2)OCCO3)cc1 (stereo not shown) [Compound 23, 1-(4-acetamidophenoxy)-3-(1,4-benzodioxane-6-methaneamino)-2-propanol]
change in vivo at 1 mg/kg [5, 6]: 90% | change in vivo at 1 mg/kg [5, 7]: 67% | LD50 ([4]; Table 5, oral): > 1000 mg/kg
